In the supplement of paper PMC5844555:

Tests used:
Test in all cases: 3' UTR reporter interaction score (median-centred robust z-score of log2 firefly/Renilla activity); higher = less repression of the 3' UTR reporter
Conditions in all cases: HEK293T; 48 h
[1] = tested on: FBXW7
In short: (§1)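 For the interaction score, the firefly/Renilla ratio was log-transformed, expressed as a robust z-score per plate using median and median absolute deviation, and median-centred per miRNA; a more negative score indicates interaction. These scores come from at least two independent screens, averaged. Each screen used HEK293T cells at 10,000/well in 96-well plates, co-transfected with DharmaFECT Duo carrying 100 ng luc2P 3' UTR reporter, 20 ng pRL-TK and 2.5 pmol miRNA mimic, with luciferase read at 48 h.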

[2] = tested on: ZEB2
In short: as §1

[3] = tested on: MYB
In short: as §1

[4] = tested on: NOTCH1
In short: as §1

[5] = tested on: PHOX2B
In short: as §1

[6] = tested on: TP53
In short: as §1

[7] = tested on: HRAS
In short: as §1

[8] = tested on: PHF6
In short: as §1

[9] = tested on: RB1
In short: as §1

[10] = tested on: MYCN
In short: as §1

[11] = tested on: BRCA2
In short: as §1

[12] = tested on: EZH2
In short: as §1

[13] = tested on: MYT1L
In short: as §1

[14] = tested on: MYC
In short: as §1

| Sequence | 3' UTR reporter interaction score [1] | 3' UTR reporter interaction score [2] | 3' UTR reporter interaction score [3] | 3' UTR reporter interaction score [4] | 3' UTR reporter interaction score [5] | 3' UTR reporter interaction score [6] | 3' UTR reporter interaction score [7] | 3' UTR reporter interaction score [8] | 3' UTR reporter interaction score [9] | 3' UTR reporter interaction score [10] | 3' UTR reporter interaction score [11] | 3' UTR reporter interaction score [12] | 3' UTR reporter interaction score [13] | 3' UTR reporter interaction score [14] |
| --- | --- | --- | --- | --- | --- | --- | --- | --- | --- | --- | --- | --- | --- | --- |
| AAAGUGCUUCCUUUUAGAGGG | 0.755 | 0.554 | -0.541 | 1.06 | 1.35 | 0.0995 | 0.261 | 0.188 | 0.0746 | -0.401 | -0.12 | -1.28 | -0.373 | 0.194 |
| AGCUGUCUGAAAAUGUCUU | 0.675 | -0.552 | -0.536 | -0.774 | 1.04 | 0.132 | -0.208 | -0.786 | 0.19 | -0.701 | -0.293 | -0.132 | 0.171 | 0.303 |
| UGUAAACAUCCUACACUCAGCU | 0.842 | -1.14 | 0.789 | -0.804 | -0.561 | -0.377 | 1.01 | -1.63 | 0.456 | -0.781 | 0.276 | 0.233 | 0.998 | -0.616 |
| ACCCUAUCAAUAUUGUCUCUGC | 0.326 | 0.936 | 0.329 | -0.0515 | -0.0439 | -0.169 | -0.283 | 0.779 | -0.979 | 0.109 | -0.211 | -0.658 | -0.388 | 0.123 |
| GACCUGGACAUGUUUGUGCCCAGU | 0.534 | 2.18 | -0.217 | -0.107 | 0.605 | -0.242 | -0.318 | 0.792 | -0.469 | 0.492 | 0.214 | -0.0513 | 0.464 | -0.104 |
| AAAGUGCAUCCUUUUAGAGUGUUAC | 0.956 | 0.599 | -1.8 | 2.14 | -0.251 | 1.22 | 0.648 | -0.315 | 0.0975 | 1.43 | -0.464 | -0.596 | -1.2 | 0.046 |
| UUUCCAUAGGUGAUGAGUCAC | -0.836 | -0.252 | 1.55 | -0.326 | -0.505 | -0.699 | 0.654 | -0.367 | 0.93 | 1.24 | -0.419 | -3.48 | -0.218 | 0.823 |
| GUGUCUGCUUCCUGUGGGA | 0.999 | 0.24 | -0.0781 | -0.363 | -0.344 | 0.286 | -2.48 | 0.326 | -0.362 | -0.382 | 0.42 | -0.0979 | 0.553 | -0.0744 |
| UUCACCACCUUCUCCACCCAGC | -2.88 | 1.21 | 0.974 | -0.224 | 0.365 | -0.656 | 0.00141 | -0.605 | 0.874 | 0.95 | -0.718 | 0.425 | 0.639 | 0.119 |
